Test results reported in patent publication US8298996B2, “Low toxicity shale hydration inhibition agent and method of use” (M-I L.L.C., priority 2007, dated 2012).
Where two headings read alike, the source gives them in different places.

Key:
[1] = for 10′ Gel / Viscosity (cps) at 3 rpm / YP: after hot rolled at 150° F., about 10 ppb inhibitor in tap water; for shale inhibiting characteristics: summary of Tables 6-9
Experimental: This test procedure uses pint jars that are filled with one barrel equivalent of tap water and about 10 ppb of a shale inhibitor. Tap water was used as a control sample. […] After stirring the samples for about 30 minutes, the rheologies were measured and then the samples were heat aged overnight at about 150° F. After the samples were cooled the rheologies were measured and recorded. This procedure was carried out for each sample until all of the samples were too thick to measure.

luminescent bacteria = settings: for EC50 (15): reduces light emission by 50% at 15 minutes at 15° C.; for toxicity results: summary of Tables 6-9

[Cl-].[K+] [Potassium Chloride, reference compound]
10′ Gel ([1]; 50 ppb Bentonite): 26 | Viscosity (cps) at 3 rpm ([1]; 50 ppb Bentonite): 12 cps | YP ([1]; 50 ppb Bentonite): 9 | 10′ Gel ([1]; 60 ppb Bentonite): 63 | Viscosity (cps) at 3 rpm ([1]; 60 ppb Bentonite): 48 cps | YP ([1]; 60 ppb Bentonite): 45 | 10′ Gel ([1]; 70 ppb Bentonite): 300 | Viscosity (cps) at 3 rpm ([1]; 70 ppb Bentonite): 143 cps | YP ([1]; 70 ppb Bentonite): 136

Triethylamine Diethyl Sulfate
EC50 (15) (luminescent bacteria): 100% | toxicity results (luminescent bacteria): good | 10′ Gel ([1]; 50 ppb Bentonite): 7 | Viscosity (cps) at 3 rpm ([1]; 50 ppb Bentonite): 4 cps | YP ([1]; 50 ppb Bentonite): 6 | 10′ Gel ([1]; 60 ppb Bentonite): 9 | Viscosity (cps) at 3 rpm ([1]; 60 ppb Bentonite): 4 cps | YP ([1]; 60 ppb Bentonite): 8 | 10′ Gel ([1]; 70 ppb Bentonite): 14 | Viscosity (cps) at 3 rpm ([1]; 70 ppb Bentonite): 8 cps | YP ([1]; 70 ppb Bentonite): 45 | shale inhibiting characteristics [1]: good

Triethylamine Dimethyl Sulfate [A (Triethylamine Dimethyl Sulfate)]
EC50 (15) (luminescent bacteria): 92.16% | toxicity results (luminescent bacteria): good | 10′ Gel ([1]; 50 ppb Bentonite): 3 | Viscosity (cps) at 3 rpm ([1]; 50 ppb Bentonite): 2 cps | YP ([1]; 50 ppb Bentonite): 4 | 10′ Gel ([1]; 60 ppb Bentonite): 4 | Viscosity (cps) at 3 rpm ([1]; 60 ppb Bentonite): 3 cps | YP ([1]; 60 ppb Bentonite): 4 | 10′ Gel ([1]; 70 ppb Bentonite): 17 | Viscosity (cps) at 3 rpm ([1]; 70 ppb Bentonite): 12 cps | YP ([1]; 70 ppb Bentonite): 48 | shale inhibiting characteristics [1]: good
